# Laboratory results taken from paper PMC11126104 (Toxins, 2024).
# How the values were obtained:
# [1] = pH 7
# [2] = tested on: Caco-2/HT-29MTX monolayers
# in vitro = settings: human
# [3] = rat, in vivo; cited from earlier work
# [4] = cited from earlier work
compound,measurement,setting,value
"CC(C)[C@H]1C(=O)O[C@H](C(C)C)C(=O)N(C)[C@@H](C(C)C)C(=O)O[C@H](C(C)C)C(=O)N(C)[C@@H](C(C)C)C(=O)O[C@H](C(C)C)C(=O)N1C [ENNB, enniatin B]","intestinal bioaccessibility, range of values",[1],0.6-98.2%
same,FA (%) absorption category,[2],High
same,toxicity / cell viability (MTT),Caco-2/HT-29MTX cells,not affecting cell viability
same,Papp,in vitro,91.6 ×10⁻⁶ cm/s
"COc1cc2c(c3oc4cccc(O)c4c(=O)c13)[C@@H]1C=CO[C@@H]1O2 [STG, sterigmatocystin]","intestinal bioaccessibility, range of values",[1],1.5-59.3%
same,FA (%) absorption category,[2],High
same,toxicity / cell viability (MTT),Caco-2/HT-29MTX cells,not affecting cell viability
aflatoxin B1 [AFB1],toxicity / cell viability (MTT),Caco-2/HT-29MTX cells,not affecting cell viability
same,absorption within the intestinal tract,[3],nearly total absorption
same,log Po/w,[4],2.09
